Test results taken from paper PMC8409457, “An evolution-inspired strategy to design disulfide-rich peptides tolerant to extensive sequence manipulation” (Chemical Science, 2021).
Where a SMILES comes first, the peptide text is derived from it. Bridges are numbered along the chain shown (N, C = ends).

Tests used:
Bcl-2 = target: T1, Bcl-2 (Homo sapiens, UniProt P10415); assay: Surface plasmon resonance (SPR), binding to immobilized Sumo-Bcl-2; conditions: for Binding affinity to Bcl-2 (SPR), in words: SPR sensorgrams, peptide 160–2560 nM
T1 construct: made in house; host or cells: E. coli
Protocol: (§1) 1.7 Surface plasmon resonance (SPR) assays
(§2) SPR assays were performed using a Biacore T200. Target proteins (Sumo-Bcl-2 and […]
(§3) to reach a target response of 1000 RU. Flow cell Fc3 that was not immobilized with proteins was used as the reference channel. […]

streptavidin = target: T2, streptavidin (Streptomyces avidinii, UniProt P22629); assay: Surface plasmon resonance (SPR), binding to immobilized streptavidin; conditions: SPR sensorgrams, peptide 20–320 nM
T2 construct: purchased Biosynthesis Biotechnology (Beijing, China)
Protocol: as §1, §2, §3

chymotrypsin = assay: Proteolytic stability of peptides toward chymotrypsin; type: in vitro ADME; conditions: 100 μM peptide, phosphate buffer 100 mM pH 7.4, 37 °C, HPLC, 0–180 min
Protocol: 1.9 Proteolytic stability of peptides
100 μM 15-Ala, 16-Ala, oxidized 15, and oxidized 16 were respectively treated with phosphate buffer (pH = 7.4, 100 mM) containing chymotrypsin at 37 °C . The chymotrypsin concentration used for the digestion of 15 - Ala and oxidized 15 is 0.3 μ g/mL . The chymotrypsin concentration used for the digestion of 16 - Ala and oxidized 16 is 5.0 μ g/mL . At pred e fined time s , 50 μ L aliqu ots were taken with a pipette , quenched with 70 μ L 10% HPO 3 , and analyzed by HPLC. […]

[1] = Thermal denaturation monitored using circular dichroism; type: physicochemical; conditions: CD, 50 μM peptide in water, 25–95 °C, ellipticity at 220 nm
Protocol: Circular dichroism (CD) spectra were measured using a 1.0 mm path length cuvette at room temperature (25 ℃). All measured peptides were dissolved in water to reach a concentration of 50
μM. The baseline signal (pure aqueous solution) were subtracted from each spectrum. CD spectra were recorded in a wavelength range of 190 ‒ 260 nm with a bandwidth of 2.0 nm, a date pitch of 1.0 nm, a response time of 8. 0 s, and a scanning speed of 50 nm/min. The thermal denaturation CD spectra were recorded in a temperature range of 25 ‒ 95 ℃ with a heating rate of 10 ℃/min. For temperature melts, the change of ellipticity at 220 nm was monitored as temperature increased f rom 25 to 95 °C in an increment of 10 °C. Other experimental conditions were consistent with those of […]

MDM2 = MDM2 (Homo sapiens, UniProt Q00987); assay: Fluorescence polarization competition assay, binding to MDM2
Protocol: 1.6 Fluorescence polarization (FP) assays
Infinite® 200 PRO Microplate Reader. […]
data with the single-site binding model. […]
described above, and fluorescence anisotropies were recorded. The Ki value of the binding between […]
been described in our previous reports.1,6
as §1, §2

Sequence of MDM2 (Q00987 whole entry, species assumed): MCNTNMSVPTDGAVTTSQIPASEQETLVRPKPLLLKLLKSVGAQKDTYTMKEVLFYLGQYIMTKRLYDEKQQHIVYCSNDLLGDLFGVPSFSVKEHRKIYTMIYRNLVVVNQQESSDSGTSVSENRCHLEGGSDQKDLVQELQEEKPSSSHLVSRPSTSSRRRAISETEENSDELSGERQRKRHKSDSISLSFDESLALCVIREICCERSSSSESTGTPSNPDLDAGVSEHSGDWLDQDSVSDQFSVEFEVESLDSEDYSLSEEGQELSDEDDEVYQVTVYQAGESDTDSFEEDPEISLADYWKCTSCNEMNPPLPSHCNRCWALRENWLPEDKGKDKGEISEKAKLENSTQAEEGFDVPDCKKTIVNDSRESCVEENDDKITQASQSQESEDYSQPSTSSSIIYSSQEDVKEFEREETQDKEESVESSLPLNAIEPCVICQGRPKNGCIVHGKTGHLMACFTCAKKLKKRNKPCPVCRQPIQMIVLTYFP
T1 sequence (P10415 whole entry, species assumed): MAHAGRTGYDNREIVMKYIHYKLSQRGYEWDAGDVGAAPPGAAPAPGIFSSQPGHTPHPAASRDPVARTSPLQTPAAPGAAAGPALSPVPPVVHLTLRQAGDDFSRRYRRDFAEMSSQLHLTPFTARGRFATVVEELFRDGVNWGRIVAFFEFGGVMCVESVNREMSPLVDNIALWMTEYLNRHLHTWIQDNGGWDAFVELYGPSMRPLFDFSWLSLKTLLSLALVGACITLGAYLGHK
T2 sequence (P22629 25-183): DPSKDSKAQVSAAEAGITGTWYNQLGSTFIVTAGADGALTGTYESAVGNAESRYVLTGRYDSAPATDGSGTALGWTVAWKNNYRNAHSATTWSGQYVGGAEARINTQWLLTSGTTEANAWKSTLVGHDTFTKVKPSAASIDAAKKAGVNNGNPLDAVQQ

Row | Molecule | Binding affinity to Bcl-2 (SPR), in words (Bcl-2) | Binding affinity to streptavidin (SPR), in words (streptavidin) | Stability to heat treatment (aggregation) [1] | Binding affinity to MDM2 (FP competition), in words (MDM2) | other results
1 | CC[C@H](C)[C@@H]1NC(=O)[C@@H]2CSSC[C@H](NC(=O)[C@H](CC(C)C)NC(=O)[C@H](CCC(=O)O)NC(=O)[C@@H]3CCCN3C(=O)[C@H](Cc3ccccc3)NC1=O)C(=O)N1CCC[C@H]1C(=O)N[C@@H](Cc1c[nH]c3ccccc13)C(=O)N[C@@H]([C@@H](C)CC)C(=O)N[C@@H](C(C)C)C(=O)N[C@H]1CSSC[C@H](NC(=O)CNC(C)=O)C(=O)N[C@@H](CCC(=O)O)C(=O)N[C@@H](CCCCN)C(=O)N[C@@H](C)C(=O)N[C@@H]([C@@H](C)O)C(=O)N[C@@H](CCC(=O)O)C(=O)N[C@@H](CO)C(=O)N[C@@H](CCC(=O)O)C(=O)N[C@@H](CO)C(=O)N3CCC[C@H]3C(=O)N[C@@H](CSSC[C@@H](C(N)=O)NC1=O)C(=O)N1CCC[C@H]1C(=O)N2 [Oxidized 15] (Ac-GCEKATESESPCPCIFPELCPWIVCC-NH2; disulfide 2-25, 12-26, 14-20) | no binding affinity | no binding affinity | no aggregation was observed |  | Stability toward proteolysis by chymotrypsin compared to linear analog (chymotrypsin; chymotrypsin 0.3 μg/mL, versus 15-Ala): significantly more stable
2 | CC[C@H](C)[C@@H]1NC(=O)[C@H](CC(N)=O)NC(=O)[C@H](CCC(=O)O)NC(=O)[C@@H]2CCCN2C(=O)[C@@H]2CSSC[C@H](NC(=O)[C@@H]3CCCN3C(=O)[C@@H]3CSSC[C@@H](C(N)=O)NC(=O)[C@H](CSSC[C@H](NC(=O)CNC(C)=O)C(=O)N[C@@H](CCSC)C(=O)N[C@@H]([C@@H](C)CC)C(=O)N[C@@H](CC(C)C)C(=O)N[C@@H](CC(C)C)C(=O)N[C@@H](CC(=O)O)C(=O)N[C@@H]([C@@H](C)O)C(=O)N[C@@H](CC(=O)O)C(=O)N[C@@H]([C@@H](C)CC)C(=O)N[C@@H](Cc4c[nH]c5ccccc45)C(=O)N3)NC1=O)C(=O)N[C@@H](CO)C(=O)N[C@@H](Cc1c[nH]cn1)C(=O)N1CCC[C@H]1C(=O)N[C@@H](Cc1ccc(O)cc1)C(=O)N[C@@H](C)C(=O)N2 [Oxidized 16] |  | negligible binding affinity | no aggregation was observed | negligible binding affinity | kd, binding kinetics with Bcl-2 (SPR) (Bcl-2; Biacore T200, 1:1 binding model, peptide 0.16–2.56 μM): 0.0498 s⁻¹; kon (Bcl-2; read-out: ka, binding kinetics with Bcl-2 (SPR)): 126000 M⁻¹ s⁻¹; Stability toward proteolysis by chymotrypsin compared to linear analog (chymotrypsin; chymotrypsin 5.0 μg/mL, versus 16-Ala): significantly more stable
3 | CC[C@H](C)[C@@H]1NC(=O)[C@H](Cc2c[nH]c3ccccc23)NC(=O)[C@@H]2CCCN2C(=O)[C@@H]2CSSC[C@H](NC(=O)[C@@H]3CCCN3C(=O)[C@@H]3CSSC[C@@H](C(N)=O)NC(=O)[C@H](CSSC[C@H](NC(C)=O)C(=O)NCC(=O)N[C@@H](CO)C(=O)NCC(=O)N[C@@H](CO)C(=O)NCC(=O)N[C@@H](CO)C(=O)NCC(=O)N[C@@H](CO)C(=O)NCC(=O)N3)NC(=O)[C@H](CCCNC(=N)N)NC1=O)C(=O)N[C@@H]([C@@H](C)CC)C(=O)N[C@@H](Cc1c[nH]c3ccccc13)C(=O)N1CCC[C@H]1C(=O)N[C@@H](CCC(=O)O)C(=O)N[C@@H](CC(C)C)C(=O)N2 [compound 8] (Ac-CGSGSGSGSGCPCIWPELCPWIRCC-NH2; disulfide 1-24, 11-25, 13-19) |  |  |  |  | Ki (MDM2; PBS pH 7.4, room temperature, peptides HPLC-purified >95%): 164 nM
4 | CSCC[C@@H]1NC(=O)[C@@H]2CCCN2C(=O)[C@@H]2CSSC[C@H](NC(=O)[C@@H]3CCCN3C(=O)[C@@H](NC(=O)[C@H](Cc3ccccc3)NC(=O)[C@@H]3CSSC[C@H](NC(=O)CNC(C)=O)C(=O)NCC(=O)N[C@@H](CO)C(=O)N[C@@H](CC(=O)O)C(=O)N[C@@H](CCC(=O)O)C(=O)N[C@@H](C)C(=O)N3)CSSC[C@@H](C(N)=O)NC(=O)[C@H](Cc3c[nH]cn3)NC(=O)[C@H](CCC(N)=O)NC(=O)[C@H](C)NC1=O)C(=O)N[C@@H](CO)C(=O)N[C@@H](Cc1c[nH]cn1)C(=O)N1CCC[C@H]1C(=O)N[C@@H](CCC(=O)O)C(=O)N[C@@H](CC(N)=O)C(=O)N2 [compound 17] (Ac-GCGSDEACFCPCSHPENCPMAQHC-NH2; disulfide 2-8, 10-24, 12-18) | negligible binding affinity |  |  | negligible binding affinity | 
5 | Ac-CGSGSGSGCGCPCIWPELCPWIRSC-NH2 (also: bicyclic or more (positions not given here)) [compound 11, original peptide template of the 11-X14 library] |  | no binding affinity |  |  | 
6 | Ac-GAMILLDTDIWAPASHPYAAPENIAA-NH2 [16-Ala, linear counterpart (Cys-to-Ala mutant) of 16] | negligible affinity |  |  |  | 
